Source: US7709636B2, “Pyrazole sulfonylurea compound and herbicide” (Nissan Chemical Industries, Ltd., priority 2004, dated 2010)

Experiments:
Chenopodium album [1] = experiment: Herbicidal effect test by foliage treatment; format: in vivo; settings: 1.6 g/a; foliage treatment after growth of 14 days; 3 weeks after treatment
Method in brief: (§1)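 Post-emergence foliar spray: plants raised 14 d in greenhouse (25–30° C) from seed in sterilized diluvial soil, sprayed with diluted wettable powder formulation, injury rated visually at 3 wk.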

Echinochloa crus-galli [2] = experiment: Herbicidal effect test by foliage treatment; format: in vivo; settings: 1.6 g/a; foliage treatment after growth of 14 days; 3 weeks after treatment
Method in brief: as §1

Setaria viridis [3] = experiment: Herbicidal effect test by foliage treatment; format: in vivo; settings: 1.6 g/a; foliage treatment after growth of 14 days; 3 weeks after treatment
Method in brief: as §1

Beta vulgaris (beet) [4] = experiment: Herbicidal effect test by foliage treatment; format: in vivo; settings: 1.6 g/a; foliage treatment after growth of 14 days; 3 weeks after treatment
Method in brief: as §1

Digitaria adscendes [5] = experiment: Herbicidal effect test by foliage treatment; format: in vivo; settings: 1.6 g/a; foliage treatment after growth of 14 days; 3 weeks after treatment
Method in brief: as §1

[6] = tested on: Triticum aestivum (wheat); experiment: Herbicidal effect test by foliage treatment; format: in vivo; settings: 1.6 g/a; foliage treatment after growth of 14 days; 3 weeks after treatment
Method in brief: as §1

corn (Zea mays) [7] = experiment: Herbicidal effect test by foliage treatment; format: in vivo; settings: 1.6 g/a; foliage treatment after growth of 14 days; 3 weeks after treatment
Method in brief: as §1

Abutilon avicennae [8] = experiment: Herbicidal effect test by foliage treatment; format: in vivo; settings: 1.6 g/a; foliage treatment after growth of 14 days; 3 weeks after treatment
Method in brief: as §1

Ambrosia elatior [9] = experiment: Herbicidal effect test by foliage treatment; format: in vivo; settings: 1.6 g/a; foliage treatment after growth of 14 days; 3 weeks after treatment
Method in brief: as §1

Black-grass [10] = experiment: Herbicidal effect test by foliage treatment; format: in vivo; settings: 1.6 g/a; foliage treatment after growth of 14 days; 3 weeks after treatment
Method in brief: as §1

Polygonum blumei [11] = experiment: Herbicidal effect test by foliage treatment; format: in vivo; settings: 1.6 g/a; foliage treatment after growth of 14 days; 3 weeks after treatment
Method in brief: as §1

Avena fatua [12] = experiment: Herbicidal effect test by foliage treatment; format: in vivo; settings: 1.6 g/a; foliage treatment after growth of 14 days; 3 weeks after treatment
Method in brief: as §1

soybean (Glycine max) [13] = experiment: Herbicidal effect test by foliage treatment; format: in vivo; settings: 1.6 g/a; foliage treatment after growth of 14 days; 3 weeks after treatment
Method in brief: as §1

Amaranthus retroflexus [14] = experiment: Herbicidal effect test by foliage treatment; format: in vivo; settings: 1.6 g/a; foliage treatment after growth of 14 days; 3 weeks after treatment
Method in brief: as §1

Stellaria media [15] = experiment: Herbicidal effect test by foliage treatment; format: in vivo; settings: 1.6 g/a; foliage treatment after growth of 14 days; 3 weeks after treatment
Method in brief: as §1

Echinochloa crus-galli [16] = experiment: Herbicidal effect test in submerged condition by treatment during weed-growth stage (1); format: in vivo; settings: 0.64 g/a, treated at 1st to 2nd leaf stage, 3 weeks after treatment
Method in brief: (§2)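 Paddy-soil pots flooded to 4 cm water depth were sown and grown in a greenhouse at 25 to 30° C until weeds reached 1st to 2nd leaf stage. A wettable powder diluted in water to a predetermined formulation amount was applied to the water surface. Herbicidal effect was scored 3 weeks after treatment against set criteria.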

Scirpus juncoides [17] = experiment: as above; format: in vivo; settings: 0.64 g/a, treated at 1st to 2nd leaf stage, 3 weeks after treatment
Method in brief: as §2

Monochoria vaginalis [18] = experiment: as above; format: in vivo; settings: 0.64 g/a, treated at 1st to 2nd leaf stage, 3 weeks after treatment
Method in brief: as §2

Echinochloa crus-galli [19] = experiment: Herbicidal effect test in submerged condition by treatment before weed-generation (1); format: in vivo; settings: 0.64 g/a, water surface treated on day of sowing, 3 weeks after treatment
Method in brief: (§3)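 Pre-emergence water-surface application of diluted wettable-powder formulation at a predetermined rate, same day as sowing, in flooded alluvial soil (4 cm water) with transplanted 2.5-leaf rice. Grown 3 weeks at 25 to 30° C in greenhouse; rated 0–5 by herbicidal rate.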

Scirpus juncoides [20] = experiment: as above; format: in vivo; settings: 0.64 g/a, water surface treated on day of sowing, 3 weeks after treatment
Method in brief: as §3

Monochoria vaginalis [21] = experiment: as above; format: in vivo; settings: 0.64 g/a, water surface treated on day of sowing, 3 weeks after treatment
Method in brief: as §3

direct sown rice [22] = experiment: Herbicidal effect test by soil treatment; format: in vivo, Oryza sativa; settings: 1.6 g/a, 3 weeks after treatment
Method in brief: (§4)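 Pre-emergence soil application: wettable powder formulation, water-diluted to set dose, sprayed evenly over soil surface after sowing; seeds under ~1.5 cm sterilized diluvial soil. Effect rated at 3 wk by criteria scale.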

direct sown rice [23] = experiment: Herbicidal effect test by foliage treatment; format: in vivo, Oryza sativa; settings: 1.6 g/a; foliage treatment after growth of 14 days; 3 weeks after treatment
Method in brief: as §1

Chenopodium album [24] = experiment: Herbicidal effect test by soil treatment; format: in vivo; settings: 1.6 g/a, 3 weeks after treatment
Method in brief: as §4

Echinochloa crus-galli [25] = experiment: Herbicidal effect test by soil treatment; format: in vivo; settings: 1.6 g/a, 3 weeks after treatment
Method in brief: as §4

Setaria viridis [26] = experiment: Herbicidal effect test by soil treatment; format: in vivo; settings: 1.6 g/a, 3 weeks after treatment
Method in brief: as §4

Beta vulgaris (beet) [27] = experiment: Herbicidal effect test by soil treatment; format: in vivo; settings: 1.6 g/a, 3 weeks after treatment
Method in brief: as §4

Digitaria adscendes [28] = experiment: Herbicidal effect test by soil treatment; format: in vivo; settings: 1.6 g/a, 3 weeks after treatment
Method in brief: as §4

[29] = tested on: Triticum aestivum (wheat); experiment: Herbicidal effect test by soil treatment; format: in vivo; settings: 1.6 g/a, 3 weeks after treatment
Method in brief: as §4

corn (Zea mays) [30] = experiment: Herbicidal effect test by soil treatment; format: in vivo; settings: 1.6 g/a, 3 weeks after treatment
Method in brief: as §4

Abutilon avicennae [31] = experiment: Herbicidal effect test by soil treatment; format: in vivo; settings: 1.6 g/a, 3 weeks after treatment
Method in brief: as §4

Ambrosia elatior [32] = experiment: Herbicidal effect test by soil treatment; format: in vivo; settings: 1.6 g/a, 3 weeks after treatment
Method in brief: as §4

Black-grass [33] = experiment: Herbicidal effect test by soil treatment; format: in vivo; settings: 1.6 g/a, 3 weeks after treatment
Method in brief: as §4

Polygonum blumei [34] = experiment: Herbicidal effect test by soil treatment; format: in vivo; settings: 1.6 g/a, 3 weeks after treatment
Method in brief: as §4

Avena fatua [35] = experiment: Herbicidal effect test by soil treatment; format: in vivo; settings: 1.6 g/a, 3 weeks after treatment
Method in brief: as §4

soybean (Glycine max) [36] = experiment: Herbicidal effect test by soil treatment; format: in vivo; settings: 1.6 g/a, 3 weeks after treatment
Method in brief: as §4

Amaranthus retroflexus [37] = experiment: Herbicidal effect test by soil treatment; format: in vivo; settings: 1.6 g/a, 3 weeks after treatment
Method in brief: as §4

Stellaria media [38] = experiment: Herbicidal effect test by soil treatment; format: in vivo; settings: 1.6 g/a, 3 weeks after treatment
Method in brief: as §4

COc1cc(OC)nc(NC(=O)NS(=O)(=O)c2c(C3=NOCC(CI)O3)c(C)nn2C)n1 (centres unmarked) [Compound 6]
herbicidal effect, K: Chenopodium album (Chenopodium album [1]): 5 (Herbicidal rate 90% or more (almost complete death)) | herbicidal effect, A: Echinochloa crus-galli (Echinochloa crus-galli [2]): 5 (Herbicidal rate 90% or more (almost complete death)) | herbicidal effect, E: Setaria viridis (Setaria viridis [3]): 5 (Herbicidal rate 90% or more (almost complete death)) | herbicidal effect, f: Beta vulgaris (beet) (Beta vulgaris (beet) [4]): 5 (Herbicidal rate 90% or more (almost complete death)) | herbicidal effect, D: Digitaria adscendes (Digitaria adscendes [5]): 5 (Herbicidal rate 90% or more (almost complete death)) | herbicidal effect, e: Triticum aestivum (wheat) [6]: 4 (Herbicidal rate 70% or more and less than 90%) | herbicidal effect, b: corn (Zea mays) (corn (Zea mays) [7]): 4 (Herbicidal rate 70% or more and less than 90%) | herbicidal effect, H: Abutilon avicennae (Abutilon avicennae [8]): 5 (Herbicidal rate 90% or more (almost complete death)) | herbicidal effect, I: Ambrosia elatior (Ambrosia elatior [9]): 5 (Herbicidal rate 90% or more (almost complete death)) | herbicidal effect, G: Black-grass (Black-grass [10]): 5 (Herbicidal rate 90% or more (almost complete death)) | herbicidal effect, L: Polygonum blumei (Polygonum blumei [11]): 5 (Herbicidal rate 90% or more (almost complete death)) | herbicidal effect, F: Avena fatua (Avena fatua [12]): 3 (Herbicidal rate 40% or more and less than 70%) | herbicidal effect, c: soybean (Glycine max) (soybean (Glycine max) [13]): 4 (Herbicidal rate 70% or more and less than 90%) | herbicidal effect, J: Amaranthus retroflexus (Amaranthus retroflexus [14]): 4 (Herbicidal rate 70% or more and less than 90%) | herbicidal effect, M: Stellaria media (Stellaria media [15]): 5 (Herbicidal rate 90% or more (almost complete death)) | herbicidal effect, A: Echinochloa crus-galli (Echinochloa crus-galli [16]): 5 (Herbicidal rate 90% or more (almost complete death)) | herbicidal effect, B: Scirpus juncoides (Scirpus juncoides [17]): 5 (Herbicidal rate 90% or more (almost complete death)) | herbicidal effect, C: Monochoria vaginalis (Monochoria vaginalis [18]): 5 (Herbicidal rate 90% or more (almost complete death)) | herbicidal effect, A: Echinochloa crus-galli (Echinochloa crus-galli [19]): 5 (Herbicidal rate 90% or more (almost complete death)) | herbicidal effect, B: Scirpus juncoides (Scirpus juncoides [20]): 5 (Herbicidal rate 90% or more (almost complete death)) | herbicidal effect, C: Monochoria vaginalis (Monochoria vaginalis [21]): 5 (Herbicidal rate 90% or more (almost complete death)) | herbicidal effect, d: direct sown rice (direct sown rice [22]): 4 (Herbicidal rate 70% or more and less than 90%) | herbicidal effect, d: direct sown rice (direct sown rice [23]): 4 (Herbicidal rate 70% or more and less than 90%) | herbicidal effect, K: Chenopodium album (Chenopodium album [24]): 5 (Herbicidal rate 90% or more (almost complete death)) | herbicidal effect, A: Echinochloa crus-galli (Echinochloa crus-galli [25]): 4 (Herbicidal rate 70% or more and less than 90%) | herbicidal effect, E: Setaria viridis (Setaria viridis [26]): 3 (Herbicidal rate 40% or more and less than 70%) | herbicidal effect, f: Beta vulgaris (beet) (Beta vulgaris (beet) [27]): 4 (Herbicidal rate 70% or more and less than 90%) | herbicidal effect, D: Digitaria adscendes (Digitaria adscendes [28]): 4 (Herbicidal rate 70% or more and less than 90%) | herbicidal effect, e: Triticum aestivum (wheat) [29]: 4 (Herbicidal rate 70% or more and less than 90%) | herbicidal effect, b: corn (Zea mays) (corn (Zea mays) [30]): 4 (Herbicidal rate 70% or more and less than 90%) | herbicidal effect, H: Abutilon avicennae (Abutilon avicennae [31]): 3 (Herbicidal rate 40% or more and less than 70%) | herbicidal effect, I: Ambrosia elatior (Ambrosia elatior [32]): 5 (Herbicidal rate 90% or more (almost complete death)) | herbicidal effect, G: Black-grass (Black-grass [33]): 5 (Herbicidal rate 90% or more (almost complete death)) | herbicidal effect, L: Polygonum blumei (Polygonum blumei [34]): 5 (Herbicidal rate 90% or more (almost complete death)) | herbicidal effect, F: Avena fatua (Avena fatua [35]): 0 (Herbicidal rate 5% or less (little effect)) | herbicidal effect, c: soybean (Glycine max) (soybean (Glycine max) [36]): 3 (Herbicidal rate 40% or more and less than 70%) | herbicidal effect, J: Amaranthus retroflexus (Amaranthus retroflexus [37]): 4 (Herbicidal rate 70% or more and less than 90%) | herbicidal effect, M: Stellaria media (Stellaria media [38]): 5 (Herbicidal rate 90% or more (almost complete death))
